The values below are quoted from earlier work in patent publication US20170143768A1, “OINTMENT FOR THE TREATMENT OF HEMORRHOIDAL DISEASE” (Global Treat SRL, priority 2014, published 2017).

As for `CC12CCC(CC1=O)C2(C)C` (stereo not shown) [camphor], the solubility in water result is listed as “water-soluble”.
